Where “and” joins values, the source holds several entries; their conditions need not be identical. Identical values can stand only once. Like-named read-outs stand apart in the source and are kept apart here.
Experiments:
pedal ganglia [1] = experiment: NO release from excised pedal ganglia (NO-selective microprobe); type: cell-based, Mytilus edulis
Experimental: For the nitric oxide assay, ten pedal ganglia (per determination) dissected from M. edulis were bathed in 1 mL sterile phosphate buffered saline (PBS). […] For the opiate receptor antagonist experiments, ganglia were pretreated with naloxone for 10 minutes prior to reticuline addition. NO release was monitored with an NO-selective microprobe manufactured by World Precision Instruments (Sarasota, Fla.). The sensor was positioned approximately 100 μm above the respective tissue surface. […] The NO detection system was calibrated daily. The probe was allowed to equilibrate for 10 minutes in the incubation medium free of tissue before being transferred to vials containing the ganglia for another 5 minutes. Manipulation and handling of the ganglia was only performed with glass instruments. Data was acquired using the Apollo-4000 free radical analyzer (World Precision Instruments, Sarasota, Fla.). The experimental values were then transferred to Sigma-Plot and -Stat (Jandel, Calif.) for graphic representation and evaluation.

pedal ganglia [2] = experiment: NO release after daily morphine injections (tolerance); type: in vivo, Mytilus
Experimental: 45 Mytilus animals were divided into three groups. […] Two hours post-injection, NO release was measured.

[3] = system: human immune and vascular tissues; experiment: NO release from human immune and vascular tissues; type: cell-based; details: morphine 10^−6 M
[4] = system: SK-N-SH neuroblastoma cell line; experiment: Cellular morphology (Form Factor) of neuroblastoma cells; type: cell-based, human; details: concomitant morphine and IFNγ
Experimental: Cell viability was determined via Trypan blue exclusion. An inverted light microscope (Nikon) with a phase-contrast filter was used to observe the cells. Pictures of the cells were taken via a digital camera (Optronix) attached to the microscope ocular. Images were uploaded onto ImagePro Plus Software (Applied Biosystems), where cell viability was calculated based on both the number of cells covering the field and the cells that present as dead from the stain. In addition, ImagePro Plus was used for determining cellular morphology. The area and perimeter were found and used in the formula (4π*Area)/(Perimeter)^2, resulting in a value between 0 (a straight line) and 1 (a perfect circle).

NMDA NR1 Subunit = experiment: NMDA NR1 subunit mRNA expression (RT-PCR); type: cell-based, human
Experimental: (§1) Isolation of total RNA was performed via RNA MiniPrep Kit (QIAGEN). Concentration of RNA was determined via GeneQuant II Spectrophotometer (Pharmacia Biotech) by multiplying A260 value with dilution factor and nucleic acid constant (0.04). Agarose gel electrophoresis (1%) was used to check for RNA quality.
(§2) RT and PCR reactions were performed in GeneAmp PCR System 9700 (Applied Biosystems) using reverse transcriptase and Taq DNA Polymerase. Forward and reverse gene specific-primers for various subunits of the 20S proteasome and immunoproteasome were either obtained from the literature or designed through Primer Express Software 2.0 (Applied Biosystems) (Table 4). NMDA receptor subunit primers were also designed (Table 4). NMDA receptor expression was used as a marker of neurodegenerative disease.
(§3) All primers were optimized for annealing temperatures and cycles (Table 5). Gel electrophoresis (2% agarose, 0.01% ethidium bromide) was performed and analyzed using a UV transilluminator (UVP) and GelPro Analyzer Software (Applied Biosystems). Relative band intensity was normalized with β-Actin reference gene.

NMDA NR2B Subunit = experiment: NMDA NR2B subunit mRNA expression (RT-PCR); type: cell-based, human
Experimental: as §1, §2, §3

[5] = system: 20S Proteasome X Subunit (β5); experiment: 20S proteasome X subunit mRNA expression (RT-PCR); type: cell-based, human; details: morphine 5 μM, 24 hours; control 0.716±0.015
Experimental: as §1, §2, §3

[6] = system: 20S Proteasome LMP7 Subunit (β5i); experiment: LMP7 immunoproteasome subunit mRNA expression (RT-PCR); type: cell-based, human
Experimental: as §1, §2, §3

[7] = system: 20S Proteasome X (β5) Subunit; experiment: 20S proteasome X subunit protein (Western blot); type: cell-based, human
Experimental: (§4) To determine protein concentrations, protein was harvested using the following buffer: 20 mM Hepes (Sigma), 100 mM NaCl (Fisher), 10 mM NaF (Sigma), 1% Triton X-100 (Sigma), 1 mM sodium orthovanadate (Sigma), 10 mM EDTA (Sigma), pH 7.4, 0.1% protease inhibitor cocktail (Sigma), and ddH2O. Homogenized samples were spun in an ultracentrifuge at 10,000G for 20 minutes at 4° C. Concentration was determined via the Bradford assay (Bio-Rad) using bovine serum albumin (BSA, Sigma) for standard curve. To eliminate any potential pipetting error, samples and standards were read in triplicate.
(§5) Western blotting was performed as follows. SDS-polyacrylamide gels (12% for separation and 5% for stacking) were made using the Mini Trans-Blot Cell (Bio-Rad). Based on the concentrations from the protein concentration determination assay, the proteins were mixed with 2× Protein Loading Buffer (0.2M DTT) for a final volume of 24 μL. Tris-Glycine Electrophoresis Buffer (1×) was used in SDS-PAGE, and proteins were separated at constant amperage (35 mA).
(§6) Subsequent protein transfer to a nitrocellulose membrane involved use of the Mini Trans-Blot Cell apparatus run at constant voltage (100V) for 40 minutes. […]
(§7) Substrate (Pierce) was administered as a means of stimulating chemiluminescence. Blots were developed and subsequently analyzed for relative band intensity using Gel-Pro software (Applied Biosystems).

26S proteasome = experiment: Chymotrypsin activity of the 26S proteasome (fluorometric); type: cell-based, human
Experimental: (§8) Proteasome function assays were performed in an effort to examine the modulation in levels of protein degradation. Fluorometric assays were performed for both the chymotrypsin activity of the 26S proteasome as well as activity of the whole 20S proteasome using procedures adapted from Kotamraju et al. (Proc. Natl. Acad. Sci. USA, 100:10653-8 (2003)). Excitation at 365 nm and emission at 460 nM of the fluorogenic compound, […] (AMC), were measured using a Spectrofluoroscence Detector (McPherson).

20S proteasome = experiment: Activity of the whole 20S proteasome (fluorometric); type: cell-based, human
Experimental: as §8

Ubiquitin = experiment: Free ubiquitin (Western blot); type: cell-based, human
Experimental: as §4, §5, §6, §7

[8] = system: Immunoproteasome LMP7 (β5i) Subunit; experiment: LMP7 polypeptide expression (Western blot); type: cell-based, human; details: 36 and 48 hours
Experimental: as §4, §5, §6, §7

Mytilus animals = experiment: TNF-α-induced death of animals; details: morphine 10^−7 M daily for four days pre-treatment
Experimental: 100 healthy Mytilus animals were treated with 10 U/mL of TNF-α by injection.

human saphenous veins = experiment: NO release from human saphenous veins; details: 2×10^−7 M morphine
[9] = system: SK-N-SH neuroblastoma cell line; experiment: NO release from SK-N-SH neuroblastoma cells; details: morphine sulfate 5 μM; baseline 2 nM NO
Experimental: The human SK-N-SH neuroblastoma cell line (ATCC #HTB-11) was used as a cellular model. Cells were propagated in Minimum Essential Medium alpha (MEMα) with 10% fetal bovine serum (FBS), 2% penicillin/streptomycin, 1.5 g/L NaHCO3, and 1.0 mM pyruvic acid. A 5% CO2 incubator (NAPCO) at 37° C. was used for maintenance of temperature and pH. […] When needed, cells were plated in 6- or 12-well plates using a hemocytometer (2×10^5 cells/well in 6-well plates or 1×10^5 cells/well in 12-well plates). Experimental manipulations were performed under sterile conditions under a lamina airflow hood after cells had adhered to the bottom of the plates.

BACE-1 = BACE-1 mRNA expression in HTB-11 cells (RT-PCR); details: 24 hours
Experimental: (§9) SH-SY5Y human neuroblastoma cells (ATCC, USA) were cultured in Dulbecco's modified Eagle's medium/Ham's nutrient mixture (DMEM-F12) (Invitrogen, USA), and HTB-11 human neuroblastoma cells (ATCC, USA) were cultured in Minimum Essential Medium Alpha Medium (MEM-α) (Invitrogen, USA). […] All treatments were performed under a sterile hood.
(§10) After the treatment time-period, cells were harvested, and total RNA was extracted using RNeasy RNA Isolation kit (Qiagen) following the manufacturer's procedures. Total RNA yield was determined using a Spectrophotometer RNA/DNA calculator (Pharmacia Biotech). Total RNA concentration was then standardized for semi-quantitative RT-PCR, which was carried out in a Geneamp Thermocycler PCR System 9700 (P.E. Applied Biosystems). […] PCR products and a 100 bp DNA marker were then loaded in a 2% agarose gel stained with ethidium bromide. Gel electrophoresis was performed using a power-supply (E-C Apparatus Corp.) set at 110V with constant amperage for 1.5 hours. Gels were then photographed using a Gel Documentation System (UVP), and bands analyzed using Gel-Pro Analyzer (MediaCybernetics) on a P4 Windows machine.

BACE-2 = BACE-2 mRNA expression in HTB-11 cells (RT-PCR); details: morphine, 24 hours
Experimental: as §9, §10

immunocytes = experiment: LPS activation of hemolymph cells from morphine pre-treated animals; details: single pre-treatment, morphine 10^−6 M, LPS 1 μg/mL

Experimental for SH-SY5Y cells: At various time points (initial and 1, 2, and 7 days), the cells were washed in phosphate buffered saline (PBS), placed in 250 μL PBS, and assessed for NO release. NO release was measured using an Apollo-4000 free radical analyzer with a 30 μm probe. The probe was calibrated daily with SNAP. Each assay was performed in quadruplicate. The mean±the standard error were graphed for each time point.

Compound: CN1CC[C@]23c4c5ccc(O)c4O[C@H]2[C@@H](O)C=C[C@H]3[C@H]1C5 [Morphine, morphine]
- NO Peak Level (pedal ganglia [1]; ligand 10^−7 M): 24.3 ± 3.1 nM
- NO Peak Time (pedal ganglia [1]; ligand 10^−7 M): 0.8 ± 0.2 min
- duration of ganglionic NO release (pedal ganglia [1]; reticuline 10^−7 M, morphine 10^−6 M): 5 min
- NO release on day one versus days two, three, and four (pedal ganglia [2]; 0.01 μM morphine daily): level similar
- NO release after four days versus day one (pedal ganglia [2]; 1 μM morphine daily): substantially lower
- NO release on 10 μM morphine challenge versus one day of 1 μM (pedal ganglia [2]; 1 μM morphine for four days): about half
- NO release [3]: 26 to 29 nM
- Form Factor (FF) [4]: 0.58±0.01
- NR1 expression (NMDA NR1 Subunit): 1.40±0.056 AU
- NR2B expression (NMDA NR2B Subunit): 1.09±0.06 AU and 1.17±0.04 AU
- proteasomal X subunit mRNA expression [5]: 0.868±0.007 AU
- LMP7 mRNA expression ([6]; 5 μM morphine with rotenone, 24 hours): 0.792±0.001 AU
- effect on IFNγ-induced LMP7 mRNA ([6]; p<0.034): blocked the LMP7 increase induced by IFNγ
- X subunit protein band intensity [7]: 162 AU and 188 AU and 168 AU and 154 AU
- activity of the chymotrypsin functional 26S active site (26S proteasome): 277 ± 8.0 pM
- 20S proteasome activity (20S proteasome): decrease in 20S proteasomal function
- free ubiquitin (Ubiquitin; 1 μM morphine, control 44): 64 AU
- free ubiquitin (Ubiquitin; 5 μM morphine): 125 AU
- effect on IFNγ-stimulated LMP7 polypeptide expression [8]: blocked this action
- NO release (SH-SY5Y cells; 10^−6 M morphine daily for six days, 10^−6 M on the seventh day): 3.4 nM
- NO release (SH-SY5Y cells; morphine 10^−6 M): 3 to 4 nM
- effect on TNF-α-induced death (Mytilus animals): reduced the number of animals that died
- NO released (human saphenous veins): 7 ± 2 nM
- peak NO release [9]: 22.3 nM
- down regulation of BACE-1 expression (BACE-1; 1 μM morphine): 44%
- down regulation of BACE-1 expression (BACE-1; 5 μM morphine): 18%
- BACE-2 expression (BACE-2): up regulates the expression of BACE-2
- activation of LPS-treated cells (immunocytes): 19.3±3.8%
